Measured values as given in patent US20220025004A1, “COMPOSITIONS AND METHODS RELATED TO SITE-SPECIFIC IDENTIFICATION OF RNA MODIFICATIONS” (The University of Chicago, priority 2018, published 2022).
Where a SMILES comes first, the peptide text is derived from it. The star is where a group is joined. Cbz = O=C(OCc1ccccc1)*; CHN2 = [N-]=[N+]=C*; tBu = CC(C)(C)*

Experiments:
Flt3L-DCs = assay: Cross-priming capacity of Flt3L-DCs pre-treated with CA-074 and/or cathepsin L inhibitor III, co-cultured with necrotic B16-OVA (IFN-γ production); type: cell-based, mouse; conditions: 5 μg/ml inhibitor for 2 h, necrotic B16-OVA 16 h, OT-I cells 3 days, FIG. 12F
Description: (§1) For cross-presentation of tumor neoantigen, CD11b^+ or CD8^+ DC were purified from draining lymph node of WT or Ythdf1^−/− mice six days after inoculating with B16-OVA, MC38-OTIp or MC38-EGFR-SIY. OT-I or 2C naive CD8^+ T cells were isolated from lymph nodes and spleen of 6 to 12-week-old mice. Negative selection was carried out with a negative CD8 isolation kit (StemCell Technologies, Inc.) following manufacturer's instruction. DCs were co-cultured with OT-1 naive CD8 T cells at the ratio of 1:10 for three days with or without 1 μg/ml SIINFEKEL peptide. For cross-presentation of soluble OVA, splenic DCs were sorted and stimulated with 100 ng/ml LPS overnight. DCs were then pulsed with different concentration of OVA (endotoxin free, Sigma) for 5 hours. Cells were washed and co-cultured with OT-I naive CD8^+ T cells for three days. For in vitro cross-presentation of tumor neoantigen, Flt3L-DCs were collected on day 9-10 and co-cultured with necrotic B16-OVA tumor cells overnight. B220^−CD11c^+ cells were subsequently purified. […] IFN-T production was detected by IFN-γ Flex Set CBA assay (BD Bioscience). […] The cross-priming capacity of DC was analyzed by the dilution of CTV in CD8^+ T cells. […] The cross-priming capacity of DCs was then evaluated by the IFN-γ production. […]

B16-OVA tumors = assay: Cathepsin blockade in vivo: B16-OVA tumor growth after intratumoral E64; design: species or system mouse; conditions: WT mice, s.c. B16-OVA, E64 intratumorally (5 μM or 50 μM) on day 11; FIG. 4B
Description: About 1×10^6 B16-OVA or MC38 tumor cells were injected s.c. into the flank of mice. Tumor volumes were measured by length (a) and width (b) and calculated as tumor volume=ab^2/2. Mice with tumor volumes less than 200 mm^3 are considered to be survival. For in vivo depletion experiments, 200 μg of anti-CD8 antibody (clone YTS169.4) or anti-NK1.1 (clone PK136) was injected i.p. three days after tumor inoculation. To block cathepsins in vivo, mice were inoculated with 1×10^6 B16-OVA cells. On day 11, mice with established tumors were treated with E64 intratumorally. For anti-PDL1 treatment, 1×10^6 B16-OVA tumor cells were s.c. injected into the flank of mice. Tumors were allowed to grow for seven days and treated i.p. by anti-PDL1 (clone10F.9G2) or Rat Ig. Tumor-free mice after treatment were monitored over time and the percentage of tumor-regression was calculated. To block IFNγ, tumor-bearing mice were treated with 50 μg anti-IFNγ mAb (clone XMG1.2) intratumorally and PD-L1 expression on tumor cells was evaluated by flow cytometry. All antibodies were ‘InVivoMAb’ from BioXCell. For adoptive transfer of T cells. Rag mice were inoculated with 5×10^5 B16-OVA on day 0. On the same day, T cells were purified from WT or Ythdf1^−/− mice using T cell negative isolation Kit (STEM CELL). 5×10^6 T cells were intravenously (i.v.) injected into Rag2^−/− mice.

wild-type DCs = assay: Cross-priming capacity of wild-type DCs pre-treated with cathepsin inhibitor E64 (ex vivo cDCs, CTV dilution; GMDCs, IFN-γ CBA); type: cell-based, mouse; conditions: E64 0.04 μM (ex vivo cDCs, OVA protein) or 0.2-2 μM (GMDCs, B16-OVA); OT-I T cells; FIGS. 12D-12E
Description: as §1

Structure (SMILES) | efficiency of cross-priming in wild-type DCs (Flt3L-DCs) | in vivo antitumor response (B16-OVA tumors) | efficiency of cross-priming in wild-type DCs (wild-type DCs)
CCCNC(=O)[C@H]1O[C@@H]1C(=O)N[C@H](C(=O)N1CCC[C@H]1C(=O)OC)[C@@H](C)CC [CA-074] | notably enhanced |  | 
CC(C)(C)Oc1ccc(C[C@H](NC(=O)[C@H](Cc2ccccc2)NC(=O)OCc2ccccc2)C(=O)C=[N+]=[N-])cc1 [cathepsin L inhibitor III] (Cbz-Phe-Tyr(tBu)-CHN2) | notably enhanced |  | 
CC(C)C[C@H](NC(=O)[C@H]1O[C@@H]1C(=O)O)C(=O)NCCCCN=C(N)N [E64] |  | markedly improved | notably enhanced
